This is an account of results in ChEMBL document CHEMBL1201862, “PubChem BioAssay data set” (2004).

Structures are written as SMILES.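 Cells were grown in 96-well plates and exposed to each compound for 48 hours at five concentrations; endpoints were interpolated linearly between bracketing concentrations, or set to the highest concentration if not reached. GI50 marks 50% less growth.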 Activity calls are given as the source filed them. No stated cut-off is given here; in the data, active = GI50 up to about 1.1 µM and inactive = higher.

Among the test systems are A498; EKVX; SW-620; ACHN; SNB-75; OVCAR-5; OVCAR-4; SF-539; NCI-H460; 786-0; SNB-19; U-251; SF-295; CCRF-CEM; SN12C; RPMI-8226; Hs-578T; MDA-MB-231; HCT-116; K562.
What all share (test): inhibition of tumour cell growth, NCI panel, 48 h

In the case of `O=C(c1ccc(Cl)cc1)N1N=C(c2ccc(Cl)cc2)CC1(O)c1cc(F)c(Cl)cc1Cl` (stereo not given), the GI50 in the assay with A498 is 13.6 µM (inactive); with EKVX it was 8.59 µM (inactive); in the assay with SW-620 it was 17.4 µM (inactive); with ACHN it was 21.3 µM (inactive); in the assay with SNB-75, 10 µM (inactive); in the assay with OVCAR-5, 28.2 µM (inactive). Besides, the GI50 with OVCAR-4 is 12.8 µM (inactive); with SF-539, 69.3 µM (inactive); in the assay on NCI-H460, 21.7 µM (inactive); in the assay on 786-0, 18.9 µM (inactive); in the assay on SNB-19 it was 14.6 µM (inactive); in the assay with U-251 it was 15.5 µM (inactive). Also, the GI50 was 20.6 µM (inactive) with SF-295; 18.7 µM (inactive) in the assay with CCRF-CEM; 14.5 µM (inactive) in the assay with SN12C; 8.22 µM (inactive) in the assay on RPMI-8226; 39 µM (inactive) in the assay with Hs-578T; 34.2 µM (inactive) in the assay with MDA-MB-231. Also, the GI50 is 5.66 µM (inactive) in the assay with HCT-116 and 7.24 µM (inactive) in the assay on K562.
Regarding `Cc1c2oc3c(C)cc(F)c(C(=O)NC4C(=O)NC(C(C)C)C(=O)N5CCCC5C(=O)N(C)CC(=O)N(C)C(C(C)C)C(=O)OC4C)c3nc-2c(C(=O)NC2C(=O)NC(C(C)C)C(=O)N3CCCC3C(=O)N(C)CC(=O)N(C)C(C(C)C)C(=O)OC2C)c(N)c1=O` (stereo not given), the GI50 with A498 was 0.161 µM (active); in the assay with EKVX it was 1.75 µM (inactive); in the assay with SW-620 it was 0.00114 µM (active); in the assay with ACHN it was 0.0832 µM (active); in the assay with SNB-75 it was 0.163 µM (active); in the assay on OVCAR-5 it was 0.214 µM (active). For the same molecule, the GI50 in the assay with OVCAR-4 was 0.711 µM (active); in the assay on SF-539 it was 0.0681 µM (active); in the assay on NCI-H460, 0.00179 µM (active); in the assay with 786-0, 0.00512 µM (active); in the assay on SNB-19, 0.00771 µM (active); in the assay with U-251 it was 0.00588 µM (active). Moreover, the GI50 in the assay on SF-295 was 0.00708 µM (active); in the assay with CCRF-CEM, < 0.001 µM (active); in the assay with SN12C, 0.0303 µM (active); with RPMI-8226 it was < 0.001 µM (active); in the assay on Hs-578T, 0.298 µM (active); in the assay with MDA-MB-231, 0.647 µM (active). The GI50 with HCT-116 is 0.01 µM (active); in the assay on K562, < 0.001 µM (active).
For the molecule `Cc1ccnc2c1c(=O)c1ccccc1n2C`, the GI50 is 31.8 µM (inactive) in the assay with A498; 30.8 µM (inactive) with EKVX; 35.5 µM (inactive) in the assay with SW-620; 27.7 µM (inactive) in the assay on ACHN; 17.6 µM (inactive) in the assay on SNB-75; 54.5 µM (inactive) with OVCAR-5. Also, the GI50 in the assay with OVCAR-4 was 35.6 µM (inactive); with SF-539, 29.9 µM (inactive); with NCI-H460 it was 13.1 µM (inactive); with 786-0, 53.6 µM (inactive); in the assay with SNB-19, 15.4 µM (inactive); with U-251, 39.8 µM (inactive). For the same molecule, the GI50 in the assay with SF-295 was 37.5 µM (inactive); with CCRF-CEM, 47.2 µM (inactive); in the assay with SN12C, 30.5 µM (inactive); in the assay with RPMI-8226, 36.7 µM (inactive); with Hs-578T, 25.3 µM (inactive); in the assay on MDA-MB-231, 31.8 µM (inactive). Also, the GI50 with HCT-116 is 39.4 µM (inactive); in the assay on K562, 50.7 µM (inactive).
For the molecule `COC(=O)C(CCC(=O)CCl)N1C(=O)c2ccccc2C1=O` (stereo not given), the GI50 with A498 was 19.5 µM (inactive); with EKVX, 19.9 µM (inactive); in the assay on SW-620, 3.62 µM (inactive); in the assay on ACHN it was 13.3 µM (inactive); with SNB-75, 8.13 µM (inactive); in the assay on OVCAR-5 it was 15.9 µM (inactive). The GI50 with OVCAR-4 is 14.8 µM (inactive); in the assay with SF-539, 12.2 µM (inactive); with NCI-H460, 12.2 µM (inactive); in the assay on 786-0, 4.05 µM (inactive); in the assay on SNB-19, 18.7 µM (inactive); with U-251, 14.4 µM (inactive). Also, the GI50 in the assay on SF-295 is 17.7 µM (inactive); with CCRF-CEM, 1.67 µM (inactive); with SN12C, 10.5 µM (inactive); in the assay on RPMI-8226, 3.37 µM (inactive); in the assay on Hs-578T, 12.6 µM (inactive); in the assay with MDA-MB-231, 12.6 µM (inactive). Further, the GI50 with HCT-116 is 5.07 µM (inactive); with K562, 2.38 µM (inactive).
Regarding `O=C1CSC(c2c[nH]c3ccccc23)N1c1cccc(Cl)c1` (stereo not given), the GI50 in the assay with A498 was 60.1 µM (inactive); in the assay on EKVX, > 100 µM (inactive); with SW-620, 50.7 µM (inactive); with ACHN it was 24.2 µM (inactive); in the assay on SNB-75, 46.7 µM (inactive); in the assay on OVCAR-5, 73.8 µM (inactive). The GI50 in the assay with OVCAR-4 was 38 µM (inactive); with SF-539 it was 61.1 µM (inactive); with NCI-H460, 37.6 µM (inactive); in the assay with 786-0, 25.5 µM (inactive); in the assay on SNB-19, 68.2 µM (inactive); with U-251 it was 37.2 µM (inactive). In addition, the GI50 was 44.1 µM (inactive) in the assay on SF-295; 31.9 µM (inactive) with CCRF-CEM; 52.2 µM (inactive) in the assay with SN12C; 25.7 µM (inactive) in the assay on RPMI-8226; 38.4 µM (inactive) in the assay on Hs-578T; 24 µM (inactive) in the assay on MDA-MB-231. Also, the GI50 in the assay on HCT-116 was 29.5 µM (inactive); with K562 it was 41 µM (inactive).
As for `Cc1cc(CN(Cc2ccccc2)Cc2nc3ccccc3[nH]2)c(O)c(CN(Cc2nc3ccccc3[nH]2)Cc2nc3ccccc3[nH]2)c1`, the GI50 was 10.2 µM (inactive) in the assay with A498; 11.4 µM (inactive) in the assay with EKVX; 14.1 µM (inactive) with SW-620; 3.38 µM (inactive) with ACHN; 8.91 µM (inactive) in the assay with SNB-75; 15.2 µM (inactive) in the assay with OVCAR-5. Moreover, the GI50 in the assay on OVCAR-4 was 6.01 µM (inactive); in the assay on SF-539, 2.92 µM (inactive); in the assay with NCI-H460, 3.94 µM (inactive); in the assay on 786-0, 15 µM (inactive); with SNB-19 it was 5.2 µM (inactive); in the assay with U-251 it was 13 µM (inactive). Moreover, the GI50 in the assay on SF-295 is 6.15 µM (inactive); in the assay with CCRF-CEM, 2.81 µM (inactive); with SN12C, 8.41 µM (inactive); with RPMI-8226 it was 4.81 µM (inactive); in the assay on Hs-578T, 15.6 µM (inactive); in the assay with MDA-MB-231, 12.4 µM (inactive). Also, the GI50 in the assay with HCT-116 was 4.16 µM (inactive); in the assay on K562, 2.63 µM (inactive).
On to `CC1=NN(c2nc(N)nc(-c3sccc3N)n2)C(C)(C)C1`, for which the GI50 with A498 was > 100 µM (inactive); with EKVX, 82.6 µM (inactive); in the assay with SW-620, > 100 µM (inactive); in the assay on ACHN, > 100 µM (inactive); in the assay on SNB-75, 36.3 µM (inactive); in the assay on OVCAR-5, > 100 µM (inactive). For the same molecule, the GI50 in the assay with OVCAR-4 is 21.7 µM (inactive); with SF-539, > 100 µM (inactive); in the assay with NCI-H460, 81.1 µM (inactive); with 786-0, > 100 µM (inactive); in the assay with SNB-19 it was > 100 µM (inactive); with U-251, > 100 µM (inactive). For the same molecule, the GI50 was 92.5 µM (inactive) in the assay with SF-295; 43.6 µM (inactive) with CCRF-CEM; > 100 µM (inactive) in the assay with SN12C; 31.8 µM (inactive) in the assay with RPMI-8226; 89.3 µM (inactive) with Hs-578T; 73.1 µM (inactive) with MDA-MB-231. For the same molecule, the GI50 with HCT-116 was 96.4 µM (inactive); with K562, 44.1 µM (inactive).
For the molecule `COc1c(C(=O)O)cccc1-c1cccc(C(=O)NCCN(CCNC(=O)c2cccc(-c3cccc(C(=O)O)c3OC)c2OC)CCNC(=O)c2cccc(-c3cccc(C(=O)O)c3OC)c2OC)c1OC`, the GI50 is 31.8 µM (inactive) in the assay with A498; 64.6 µM (inactive) in the assay with EKVX; 29.6 µM (inactive) with SW-620; 50.5 µM (inactive) in the assay on ACHN; 25.9 µM (inactive) in the assay with SNB-75; 28.6 µM (inactive) in the assay on OVCAR-5. Also, the GI50 is 60.5 µM (inactive) in the assay with OVCAR-4; 37.2 µM (inactive) with SF-539; 25.4 µM (inactive) in the assay with NCI-H460; 31.6 µM (inactive) in the assay on 786-0; 52 µM (inactive) in the assay with SNB-19; 28.5 µM (inactive) in the assay on U-251. Moreover, the GI50 in the assay with SF-295 is 40.5 µM (inactive); in the assay on CCRF-CEM it was 35.2 µM (inactive); with SN12C, 29.4 µM (inactive); in the assay on RPMI-8226, 23.2 µM (inactive); in the assay on Hs-578T it was 28 µM (inactive); in the assay on MDA-MB-231, 37.6 µM (inactive). Further, the figures for the GI50 in the assay on HCT-116 and in the assay on K562 were 33.4 µM (inactive) and 24.3 µM (inactive), respectively.
Regarding `COc1ccc2cc(CNCCCCCCNC(=O)Nc3cccc4ccccc34)ccc2c1`, the GI50 with A498, with EKVX, with SW-620, in the assay on ACHN, in the assay on SNB-75 and in the assay with OVCAR-5 was > 100 µM (inactive) in each case. In addition, the GI50 in the assay with OVCAR-4, with SF-539, in the assay with NCI-H460, in the assay with 786-0, with SNB-19 and with U-251 was > 100 µM (inactive) each time. Moreover, the GI50 in the assay with SF-295, in the assay on CCRF-CEM, in the assay on SN12C, in the assay on RPMI-8226, with Hs-578T and in the assay on MDA-MB-231 was > 100 µM (inactive) each time. For the same molecule, the GI50 with HCT-116 and with K562 was > 100 µM (inactive) in each case.
`O=[N+]([O-])c1ccc(C(Nc2ccccc2)c2ccc3cccnc3c2O)cc1` (stereo not given): the GI50 with A498 was 24.1 µM (inactive); in the assay on EKVX, 6.04 µM (inactive); in the assay with SW-620 it was 6.27 µM (inactive); with ACHN, 5.61 µM (inactive); in the assay on SNB-75, 6.67 µM (inactive); in the assay on OVCAR-5 it was 8.2 µM (inactive). In addition, the GI50 in the assay with OVCAR-4 was 5.69 µM (inactive); in the assay with SF-539, 3.72 µM (inactive); with NCI-H460, 3.24 µM (inactive); in the assay with 786-0 it was 4.37 µM (inactive); with SNB-19, 7.74 µM (inactive); in the assay on U-251 it was 3.55 µM (inactive). Further, the GI50 was 4.37 µM (inactive) with SF-295; 2.17 µM (inactive) in the assay on CCRF-CEM; 7.94 µM (inactive) in the assay with SN12C; 5.13 µM (inactive) in the assay on RPMI-8226; 19.6 µM (inactive) in the assay on Hs-578T; 16.2 µM (inactive) in the assay with MDA-MB-231. Further, the GI50 in the assay with HCT-116 was 7.8 µM (inactive); in the assay on K562, 12.6 µM (inactive).
